{"source": "patent US5985926A", "about": "“Method for inhibiting intracellular viral replication” (Cell Therapeutics, Inc., priority 1997, dated 1999)", "key": {"[1]": {"tested_on": "phosphatidic acid (PA) subspecies in 293tat cells", "test": "PA composition of 293tat cells by HPLC", "type": "cell-based, human", "description": "One must first quantitatively and qualitatively separate PAs from the other lipids found in serum by a chemical extraction of lipids and high performance liquid chromatography (HPLC) to separate and detect PAs. […] Briefly, the method of Bligh et al. involves an organic extraction of lipids from biological tissue homogenates or fluids. One volume of sample and three volumes of methanol:chloroform (2:1) are vigorously shaken for 2 min. One volume of chloroform is added and then shaken vigorously for 30 sec. One volume of water is added and then shaken vigorously for 30 sec. The mixture is filtered and the upper aqueous layer is discarded. The lower organic layer contains a mixture of lipid classes. The method of Folch et al. involves the extraction of lipids from biological tissue homogenates or body fluids. One volume of sample plus 20 volumes of chloroform:methanol (2:1) are vigorously shaken for 2 min. The mixture is filtered and an amount of 0.1 N KCl equal to 20% of the extraction mixture volume is added and the mixture is shaken vigorously for 2 min. The aqueous and organic phases are allowed to separate. The upper aqueous layer is discarded. The lower organic layer contains a mixture of lipid classes. […] This method involves separation of lipids into their major classes by normal phase (silica) high performance liquid chromatography (HPLC). A 5 micron, 25 cm×0.45 cm silica HPLC column is connected to a binary solvent delivery system followed with a UV detector. The lipid sample is injected on the column and a solvent gradient is run at 1.0 ml/min. The solvent gradient is hexane:isopropanol:water in the proportions 3:4:0.75 run isocratically for 3 min, then ramped to hexane:isopropanol:water in the proportions 3:4:1.4 in 15 min, then run isocratically at the same proportions for 15 min. Detection is at 206 nm.\nOne of the steps after cell activation involves the hydrolysis of phosphatidylcholine (PC), the major phospholipid of cellular membranes, by phospholipases C and D, leading to the generation of second messengers, such as PA and DG, in the signal transduction cascade."}, "[2]": {"tested_on": "PA (phosphatidic acid) formation in tat-transfected and tar-transfected cells", "test": "PA mass / myrPA formation in serum-stimulated EB293, 293tat and 293tar cells", "type": "cell-based, human", "description": "Transformed and serum-stimulated cells were measured for total PA mass according to the methods described herein. […] The columns in FIG. 18 represent: (1) EB293 cells plus serum, (2) EB293 cells plus serum plus CT3556 (10 μM.), (3) 293tat cells plus serum, (4) 293tat cells plus serum plus CT3556 (10 μM.), (5) 293tar cells plus serum, and (6) 293tar cells plus serum plus CT3556 (10 μM.).\nThis procedure begins with those cells that would be normally infected with a virus, such as a retrovirus. However, it is not necessary to utilize a cell line containing a retroviral genome, such as U1 cells. In view of the necessity to utilize containment facilities when using an infected cell line, it is preferable to utilize a macrophage cell line that is not infected. Examples of appropriate macrophage cell lines include, U937, THP1, U1, and P288s (available from standard sources, such as ATCC). The cells are stimulated with a stimulant with or without a candidate drug. Examples of stimulants include 3-5% serum, such as fetal calf serum, or tumor necrosis factor (TNF) (e.g., 20 ng/ml) both of which are standard laboratory reagents. After a time course (within 5 minutes, preferably within 1 minute), the cells are immersed in ice cold methanol to stop any cellular signaling reactions.\nOne must first quantitatively and qualitatively separate PAs from the other lipids found in serum by a chemical extraction of lipids and high performance liquid chromatography (HPLC) to separate and detect PAs. Chemical extraction can be accomplished, for example, by the method of Bligh et al. (Canadian J. Biochem. Physiol. 37:911-917, 1959) or that of Folch et al. (J. Biol. Chem. 226:497-509, 1957). Briefly, the method of Bligh et al. involves an organic extraction of lipids from biological tissue homogenates or fluids. One volume of sample and three volumes of methanol:chloroform (2:1) are vigorously shaken for 2 min. One volume of chloroform is added and then shaken vigorously for 30 sec. One volume of water is added and then shaken vigorously for 30 sec. The mixture is filtered and the upper aqueous layer is discarded. The lower organic layer contains a mixture of lipid classes. The method of Folch et al. involves the extraction of lipids from biological tissue homogenates or body fluids. One volume of sample plus 20 volumes of chloroform:methanol (2:1) are vigorously shaken for 2 min. The mixture is filtered and an amount of 0.1 N KCl equal to 20% of the extraction mixture volume is added and the mixture is shaken vigorously for 2 min. The aqueous and organic phases are allowed to separate. The upper aqueous layer is discarded. The lower organic layer contains a mixture of lipid classes. Free fatty acids and neutral lipids can be separated from phospholipids by normal phase high performance liquid chromatography (HPLC) by modifying the method of Van Kessel et al. (Biochim et Biophys Acta 486:524-530, 1977). This method involves separation of lipids into their major classes by normal phase (silica) high performance liquid chromatography (HPLC). A 5 micron, 25 cm×0.45 cm silica HPLC column is connected to a binary solvent delivery system followed with a UV detector. The lipid sample is injected on the column and a solvent gradient is run at 1.0 ml/min. […]\nTransformed and serum-stimulated cells were measured for total PA mass according to the methods described herein. […]"}}, "note": "“Also recorded” adds a separate entry of the source."}
{"molecule": "CCCCCCCCNCC(O)CCCCCCCCCn1c(=O)c2c(ncn2C)n(C)c1=O", "note": "(stereo not drawn) [CT2576, 1-(11-octylamino-10-hydroxyundecyl)-3,7-dimethylxanthine]", "values": [{"measurement": "effect on generation of myrPA species / turnover of PA subspecies", "setting": "[1]", "value": "affected the turnover of PA subspecies; also recorded: affects the generation of myrPA species"}, {"measurement": "long chain unsaturated PA, share of far UV absorbing lipids after preincubation", "setting": "[1]; 8 μM CT2576", "value": 15, "unit": "%"}, {"measurement": "long chain unsaturated PA, share of far UV absorbing lipids after 2 minutes TNF-α", "setting": "[1]; 8 μM CT2576, 2 minutes of TNF-α", "value": 20, "unit": "%"}, {"measurement": "short chained saturated PA subspecies", "setting": "[1]; preincubation with 8 μM CT2576", "value": "less after CT2576 preincubation than without treatment; also recorded: very little change with addition of TNF-α"}, {"measurement": "inhibition of myrPA formation in stimulated cells", "setting": "[2]; 10 μM, tat-transfected cells stimulated with serum", "value": "inhibited myrPA formation in stimulated cells"}, {"measurement": "total PA mass, dose response", "setting": "[2]; EB293 cells with tat expression plasmid, serum, 0 to one minute (FIG. 20)", "value": "dose response relationship"}]}
